# Data reported in PubChem BioAssay (NCI).
# “And” between values parts separate entries of the source, which are not always exact repeats. Identical values can stand only once.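 A five-concentration, 48-hour dose response in 96-well plates underlies each endpoint, interpolated linearly between surrounding concentrations. GI50: concentration for 50% inhibition of growth. At the TGI there is no net growth.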
# System: MDA-MB-468 breast
# Test: NCI tumour cell line growth inhibition, 48 h
Compound,GI50,TGI
COc1ccc(C(=O)C[C@]2(O)C(=O)Nc3c(Cl)ccc(Cl)c32)cc1,0.395 µM,> 67.1 µM
O=C(/C=C/c1cn(-c2ccccc2)nc1-c1ccc([N+](=O)[O-])cc1)c1ccc(Cl)cc1,2.91 µM,> 100 µM
O=C(CCN1CCCC1)Nc1ccc2c(Nc3ccccc3)c3ccccc3nc2c1,0.182 µM,1.6 µM
Fc1c[c-]c(-c2ccccn2)c(F)c1.[CH3-].[Pt+2].c1ccc(P(C[PH+](c2ccccc2)c2ccccc2)c2ccccc2)cc1,0.325 µM,0.946 µM
CCCn1cnc2c(SCc3ccccc3)nc(N)nc21,23.6 µM,> 100 µM
Cc1n(Cc2ccc3ccccc3c2)c(Cl)c(Cl)[n+]1Cc1ccc2ccccc2c1,1.09 µM,2.92 µM
CN(C)C(=O)SC1=C(c2c(Cl)cccc2Cl)C(=O)c2ccccc21,1.97 µM,4.15 µM
CCCNC(=O)CCC(C)[C@H]1CCC2C3C(C[C@H](OC(C)=O)[C@@]21C)[C@@]1(C)CCC2(C[C@H]1C[C@H]3OC(C)=O)OOC1(CCCCC1)OO2 (stereo not given in full),1.89 µM,6.77 µM
COc1cc2cc(Oc3ccc(NC(=O)c4cccc5c4OCCO5)cc3)c(C)nc2cc1OC,2.93 µM,48.7 µM
CCO/C=N/C1=C(C#N)C(c2ccc(Cl)cc2)c2sc3c(CC)cccc3c2O1 (stereo not given),0.911 µM,11 µM
O=C(Cc1ccc(/C=C/C(=O)c2ncc[nH]2)cc1)Nc1ccc(C(F)(F)F)cc1,1.77 µM,6.84 µM
CC(=O)Oc1ccc(C2(c3ccc(OC(C)=O)cc3)C(=O)Nc3ccccc32)cc1,0.0682 µM and 0.0738 µM,40.8 µM and 91 µM
CCNC(=O)Oc1ccc(/C(=C(/C)c2ccc(OC)cc2)c2ccc(OCCN3CCCCCC3)cc2)cc1,2.05 µM,8.09 µM
C1=C2CNCC3=Cc4ccc5ccccc5c4OC23Oc2c1ccc1ccccc21,2.06 µM,7.55 µM
CC[C@H](C)[C@H](NC(=O)[C@H]1CCCCN1C)C(=O)N(C)[C@H](C[C@@H](OC(C)=O)c1nc(C(=O)N[C@@H](Cc2ccccc2)C[C@H](C)C(=O)OC)cs1)C(C)C,–,4.45 µM
CN(C)CCCC1(c2ccc(F)cc2)OCc2cc(-c3cncc4ccccc34)ccc21 (stereo not given),1.55 µM,3.19 µM

Compound,GI50,TGI
O=C1C=C(N2CCN(c3ccccn3)CC2)C(=O)c2c(O)ccc(O)c21,2.75 µM,–
COC(=O)[C@H](Cc1ccccc1)NC(=O)c1csc([C@@H](C[C@H](C(C)C)N(C)C(=O)[C@@H](NC(=O)[C@H]2CCCN2C)C2CC2)OC(C)=O)n1,0.153 µM,> 33.3 µM
O=C(Nc1ccccc1O)c1ccc(CNC(=O)c2ccsc2Nc2ccnc(C(F)(F)F)c2)cc1,1.43 µM,3.53 µM
COc1ccc(-c2cc(/C=C/C(=O)c3cc(OC)c(OC)c(OC)c3)[nH]n2)cc1OC,1.33 µM,3.27 µM
COc1cc2nnn3c4ncccc4c(N=O)c3c2cc1OC,0.156 µM,1.09 µM
Cn1cnc([N+](=O)[O-])c1Sc1nc(N)nc2nc[nH]c12,0.884 µM,6.11 µM
O=c1oc2ccc(F)cc2c(=O)n1-c1ccc(Br)cc1F,1.53 µM,5.49 µM
CCc1cccc(CC)c1/C=C/c1cncc(C(=O)NC)c1,4.03 µM,20.6 µM
Nc1ccn([C@@H]2C(F)=C(CO)[C@@H](O)[C@H]2O)c(=O)n1,31.2 µM,> 100 µM
Oc1[nH]c2ccccc2c1/C=c1/cc2c(c(-c3ccc(C(F)(F)F)cc3)n1)=Nc1ccccc1-2,3.82 µM,16.1 µM
CCCCCCOc1ccc(C(=N)N(CCCC)CCCC)c2ccccc12,0.59 µM,2.01 µM
O=C(Nc1ccc(Cl)cc1)Nc1ccccc1CNc1nc(Nc2ccc(OCCN3CCCC3)cc2)ncc1Cl,0.998 µM,2.28 µM
C[C@@H]1C/C=C\C(=O)O[C@H](/C=C/C#C/C=C/C(C)(C)[C@@H](O)c2cccc(O)c2Br)[C@@H](C)/C=C/[C@H](C)C[C@H](OC(N)=O)C1,0.0611 µM,17.8 µM
CCC(=O)c1cc([N+](=O)[O-])c(Br)s1,1.92 µM,3.69 µM
Cn1cc(CO)c2ccccc21,10.5 µM,48.7 µM
